For eleven compounds, MIC results are on record in US4110327A, “2,3 Diketo-piperazinocarbonylamino alkanoic acids and derivatives” (Toyama Chemical Co., Ltd., priority 1974, dated 1978).

What all share (assay): MIC against standard strain, plate method
Holding throughout (format): cell-based

One test deals with Escherichia coli NIHJ. The settings on record: unit assumed. As for the experimental part: (§1) The minimum inhibitory concentrations (MIC) was determined by the plate method disclosed in "Chemotherapy" (Japan), Vol. 16, (1968), pages 98 - 99. The culture medium used was a Heart infusion agar (pH 7.4). The number of the cells per plate used in the inoculum as 10^4 (10^6 cells/ml).

For the next test, the system named is Klebsiella pneumoniae. The settings on record: unit assumed. As to the method: as §1
The next test deals with Proteus vulgaris 3027. The conditions noted are these: Proteus vulgaris 3027, standard strain; unit assumed. As to the method:
as §1

Test [1] concerns Pseudomonas aeruginosa I.F.O. The conditions noted are these: unit assumed. As to the method: as §1
Test [2] concerns Staphylococcus aureus 209p. The settings on record: unit assumed. As for the experimental part:
as §1

Converted amounts (≈) assume the structure as drawn.

The term MIC denotes the least concentration at which growth counts as inhibited. Read a low MIC as a more susceptible organism. Regarding `CC(=O)OCCN1CCN(C(=O)N[C@@H](C(=O)N[C@@H]2C(=O)N3[C@@H]2SC(C)(C)[C@@H]3C(=O)O)c2ccccc2)C(=O)C1=O` (single isomer, unassigned) [compound 41], the MIC is under 1.57 µg/mL in the test on Escherichia coli NIHJ; 6.25 µg/mL (≈ 10.9 µM) with Klebsiella pneumoniae; under 1.57 µg/mL against Proteus vulgaris 3027; 25 µg/mL (≈ 43.4 µM) in test [1]; under 1.57 µg/mL in test [2].

With `CC1(C)S[C@@H]2[C@H](NC(=O)[C@H](NC(=O)N3CCN(C(=O)c4ccc(Cl)cc4Cl)CC3=O)c3ccccc3)C(=O)N2[C@H]1C(=O)O` [compound 10], the MIC against Escherichia coli NIHJ is under 1.57 µg/mL; in the test on Klebsiella pneumoniae, 6.25 µg/mL (≈ 9.64 µM); in the test on Proteus vulgaris 3027, 3.13 µg/mL (≈ 4.83 µM); in test [1], 100 µg/mL (≈ 154 µM); in test [2], under 1.57 µg/mL.

For the compound `CN1CCN(C(=O)N[C@@H](C(=O)N[C@@H]2C(=O)N3[C@@H]2SC(C)(C)[C@@H]3C(=O)O)c2ccc(O)cc2)C(=O)C1=O` (single isomer, unassigned) [compound 48], the MIC in the test on Escherichia coli NIHJ was under 0.4 µg/mL; in the test with Klebsiella pneumoniae, 25 µg/mL (≈ 48.1 µM); in the test with Proteus vulgaris 3027 it was under 0.4 µg/mL; in test [1] it was 6.25 µg/mL (≈ 12 µM); in test [2] it was under 0.4 µg/mL.

In the case of `CC1(C)S[C@@H]2[C@H](NC(=O)[C@H](NC(=O)N3CCN(c4ccccc4)C(=O)C3=O)c3ccccc3)C(=O)N2[C@H]1C(=O)O` (single isomer, unassigned) [compound 43], the MIC with Escherichia coli NIHJ is under 1.57 µg/mL; in the test with Klebsiella pneumoniae it was 1.57 µg/mL (≈ 2.78 µM); with Proteus vulgaris 3027, under 1.57 µg/mL; in test [1] it was 6.25 µg/mL (≈ 11.1 µM); in test [2], under 1.57 µg/mL.

For `CC1(C)S[C@@H]2[C@H](NC(=O)[C@H](NC(=O)N3CCN(C4CCCC4)C(=O)C3)c3ccccc3)C(=O)N2[C@H]1C(=O)O` (single isomer, unassigned) [compound 32], the MIC is under 1.57 µg/mL in the test on Escherichia coli NIHJ; 12.5 µg/mL (≈ 23 µM) in the test with Klebsiella pneumoniae; 6.25 µg/mL (≈ 11.5 µM) against Proteus vulgaris 3027; 12.5 µg/mL (≈ 23 µM) in test [1]; under 1.57 µg/mL in test [2].

For the compound `CC1(C)S[C@@H]2[C@H](NC(=O)[C@H](NC(=O)N3CCN(C(=O)C(Cl)Cl)CC3=O)c3ccccc3)C(=O)N2[C@H]1C(=O)O` [compound 2], the MIC with Escherichia coli NIHJ was under 1.57 µg/mL; with Klebsiella pneumoniae it was 12.5 µg/mL (≈ 21.3 µM); in the test with Proteus vulgaris 3027, 6.25 µg/mL (≈ 10.7 µM); in test [1], 50 µg/mL (≈ 85.3 µM); in test [2], under 1.57 µg/mL.

For `C=CC(C)N1CCN(C(=O)N[C@@H](C(=O)N[C@@H]2C(=O)N3[C@@H]2SC(C)(C)[C@@H]3C(=O)O)c2ccccc2)CC1=O` (single isomer, unassigned) [compound 26], the MIC against Escherichia coli NIHJ is under 1.57 µg/mL; against Klebsiella pneumoniae, 25 µg/mL (≈ 47.2 µM); with Proteus vulgaris 3027 it was 12.5 µg/mL (≈ 23.6 µM); in test [1], 25 µg/mL (≈ 47.2 µM); in test [2] it was under 1.57 µg/mL.

In the case of `CC1(C)S[C@@H]2[C@H](NC(=O)[C@H](NC(=O)N3CCN(S(C)(=O)=O)CC3=O)c3ccccc3)C(=O)N2[C@H]1C(=O)O` [compound 5], the MIC against Escherichia coli NIHJ was under 1.57 µg/mL; in the test with Klebsiella pneumoniae it was 12.5 µg/mL (≈ 22.6 µM); with Proteus vulgaris 3027, under 1.57 µg/mL; in test [1], 25 µg/mL (≈ 45.2 µM); in test [2], under 1.57 µg/mL.

Regarding `CC1(C)S[C@@H]2[C@H](NC(=O)[C@H](NC(=O)N3CCN(C(=O)C4CCCCC4)CC3=O)c3ccccc3)C(=O)N2[C@H]1C(=O)O` [compound 3], the MIC against Escherichia coli NIHJ was under 1.57 µg/mL; with Klebsiella pneumoniae it was 3.13 µg/mL (≈ 5.34 µM); against Proteus vulgaris 3027 it was 3.13 µg/mL (≈ 5.34 µM); in test [1], 100 µg/mL (≈ 171 µM); in test [2], under 1.57 µg/mL.

As for `CC(=O)N1CCN(C(=O)N[C@@H](C(=O)N[C@@H]2C(=O)N3[C@@H]2SC(C)(C)[C@@H]3C(=O)O)c2ccccc2)C(=O)C1C` (stereo partly shown) [compound 4], the MIC was under 1.57 µg/mL in the test with Escherichia coli NIHJ; 12.5 µg/mL (≈ 23.5 µM) against Klebsiella pneumoniae; 3.13 µg/mL (≈ 5.89 µM) with Proteus vulgaris 3027; 25 µg/mL (≈ 47 µM) in test [1]; under 1.57 µg/mL in test [2].

For the compound `CN1CCN(C(=O)N[C@@H](C(=O)N[C@@H]2C(=O)N3[C@@H]2SC(C)(C)[C@@H]3C(=O)OCCN2CCCCC2)c2ccccc2)C(=O)C1=O` (single isomer, unassigned) [compound 53], the MIC is under 0.4 µg/mL in the test with Escherichia coli NIHJ; 25 µg/mL (≈ 40.7 µM) against Klebsiella pneumoniae; 0.79 µg/mL (≈ 1.29 µM) with Proteus vulgaris 3027; 6.25 µg/mL (≈ 10.2 µM) in test [1]; 0.79 µg/mL (≈ 1.29 µM) in test [2].
